Measurements reported in US20100203110A1, “Therapeutics for Cancer Using 3-Bromopyruvate and Other Selective Inhibitors of ATP Production” (The Johns Hopkins University, priority 2006, published 2010).

Key:
[1] = system: VX2 tumor glycolysis; assay: Glycolytic activity (lactic acid formation) of VX2 tumor slices; assay type: cell-based, rabbit; conditions: for inhibition of VX2 tumor glycolysis (screen): 6 mM agent, 6 mM glucose, 37° C., 5 h
Experimental: Glycolysis was assayed by monitoring the formation of lactic acid following the addition of glucose to a medium containing VX2 tumor slices. Specifically, freshly excised tumors were washed 3 times at 4° C. in 20 ml Chance Hess Medium containing 6.2 mM KCl, 154 mM NaCl, and 11 mM NaPi, pH 7.4. Slices, 1 g each, were then prior incubated for 30 min in a Lab-Line incubator-shaker at 37° C. in 2 ml of the same medium while shaking at 50 rpm. Glucose was then added to give a final concentration of 6 mM, after which the incubation/shaking process was continued with 0.2 ml samples being removed every 30 min for up to 2 h. These samples were subjected to centrifugation at 14,000 rpm in an Eppendorf Centrifuge (Model 5415C). Then, aliquots of the supernatant, 0.01 ml, were removed from each sample, diluted with 0.03 ml of water and subjected to lactic acid determination using the kit supplied by Sigma. The latter contains, in addition to lactic dehydrogenase and NAD+, hydrazine, and glycine buffer, pH 9.2. The mixture was incubated for 30 min at 25° C. after which the absorbance due to formation of NADH was determined at 340 nm using a Gilford Model 260 spectrophotometer. To assess the elevation of the glycolytic activity of the VX2 tumor over that of liver tissue, parallel studies were always carried out in an identical manner with 1 g liver slices derived from the host liver. Finally, in those cases where agents were tested for their capacity to inhibit glycolysis, these were introduced into the system at the prior incubation step with all subsequent steps being run in parallel with those described above for the VX2 tumor or liver alone.
The screen included the following 9 compounds: 2-deoxyglucose (2DOG), 2-fluoro-2-deoxyglucose, 6-fluoro-6-deoxyglucose, 3-O-methyl glucose, 5-thio-D-glucose-6-phosphate, L-glucose, D-xylose, D-lyxose, and 3-bromopyruvic acid (3BrPA). The screen was conducted by incubating VX2 tumor slices in a medium containing 6 mM glucose with 6 mM of each of these agents at 37° C. for 5 h. The use of 6 mM glucose in the medium was used to mimic the maximal amount of glucose that might be in the blood in a real in vivo situation.
To compare the inhibitory effects of 2DOG and 3BrPA on the glycolytic capacity of the isolated liver implanted VX2 tumor, various concentrations of 2DOG and 3BrPA were prior incubated for 30 min at 37° C. with 1 g VX2 tumor slices and glycolysis was monitored.

[2] = system: AS-30D hepatoma cells; assay: Killing of AS-30D hepatoma cells (trypan blue); assay type: cell-based, rat; conditions: 20 mM, 12 h
Experimental: AS-30D hepatoma cells grown in the peritoneal cavity of Sprague Dawley female rats (see Materials) were adapted to grow in tissue culture in Dulbecco's modified Eagle's medium containing 10% fetal bovine serum. Cells were maintained at 37° C. in a humidified atmosphere containing 5% CO2, and counted in a Neubauer chamber after trypan blue dye addition (cell/dye volume=1/1) by visualization under a Nikon inverted microscope.
The studies described above using the VX2 tumor model for liver cancer predict that 2DOG and 3BrPA may have the capacity to kill hepatoma cells expressing the high glycolytic/high hexokinase phenotype. […] Cell killing was assessed in these experiments by counting those cells in which trypan blue had entered.

| Structure (SMILES) | inhibition of VX2 tumor glycolysis (screen) ([1]; VX2 tumor slices) | further results |
| --- | --- | --- |
| O=C[C@H](F)[C@@H](O)[C@H](O)[C@H](O)CO [2-fluoro-2-deoxyglucose] | ineffective |  |
| O=CC[C@@H](O)[C@H](O)[C@H](O)CO [2DOG, 2-deoxyglucose] | ineffective | IC50 ([1]; Oryctolagus cuniculus, 0.5 h, prior incubated 30 min at 37° C. with 1 g VX2 tumor slices, read-out: half maximal inhibition of glycolysis): ~15 mM; concentration for maximal / complete inhibition of glycolysis ([1]; VX2 tumor slices, 2DOG maximal (70%), 3BrPA complete): ~50 mM; maximal inhibition of glycolysis ([1]; at almost 50 mM, VX2 tumor slices): 70%; cell killing [2]: about 80% |
| CO[C@@H]([C@H](O)[C@H](O)CO)[C@@H](O)C=O [3-O-methyl glucose] | ineffective |  |
| O=C[C@H](O)[C@@H](O)[C@H](O)[C@H](S)COP(=O)(O)O [5-thio-D-glucose-6-phosphate] | ineffective |  |
| O=C[C@H](O)[C@@H](O)[C@H](O)[C@H](O)CF [6-fluoro-6-deoxyglucose] | ineffective |  |
| O=C[C@@H](O)[C@@H](O)[C@H](O)CO [D-lyxose] | ineffective |  |
| O=C[C@H](O)[C@@H](O)[C@H](O)CO [D-xylose] | ineffective |  |
| O=C[C@@H](O)[C@H](O)[C@@H](O)[C@@H](O)CO [L-glucose] | ineffective |  |
